17 molecules from patent publication EP4678638A1, “NEW E3 UBIQUITIN LIGASE LIGAND, PROTEIN DEGRADATION AGENT AND USE THEREOF” (priority 2023, dated 2024) can be followed below.

For the assay, the target named is T1, IRAK4 (Homo sapiens, UniProt Q9NWZ3).
T1 construct: evaluate the effects of the compounds of the present disclosure on the expression of target proteins in cells; endogenous in cells; host or cells: hPBMC
T1 sequence (Q9NWZ3 1-460): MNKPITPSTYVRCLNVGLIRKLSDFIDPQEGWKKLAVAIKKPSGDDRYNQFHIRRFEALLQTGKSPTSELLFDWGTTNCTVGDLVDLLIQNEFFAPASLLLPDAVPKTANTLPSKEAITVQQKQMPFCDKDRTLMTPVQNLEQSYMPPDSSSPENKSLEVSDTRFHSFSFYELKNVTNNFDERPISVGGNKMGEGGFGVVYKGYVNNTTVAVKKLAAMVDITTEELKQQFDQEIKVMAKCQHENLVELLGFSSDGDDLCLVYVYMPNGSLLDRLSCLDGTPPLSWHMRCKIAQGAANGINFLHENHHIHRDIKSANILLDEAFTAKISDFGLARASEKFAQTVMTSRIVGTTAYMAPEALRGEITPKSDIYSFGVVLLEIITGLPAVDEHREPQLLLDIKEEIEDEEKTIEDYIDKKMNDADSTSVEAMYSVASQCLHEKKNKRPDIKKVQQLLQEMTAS
In words: Western blot degradation of IRAK4 (hPBMC). It counts as cell-based. The note with it: Table D1. As for the experimental part: Conventional Western blot assay was performed to evaluate the effects of the compounds of the present disclosure on the expression of target proteins in cells.
(1) Cell Seeding and Protein Harvesting: The selected cells were processed according to the cell seeding procedure and protein harvesting procedure in Table III-2. Table III-2 Cell Seeding and Protein Harvesting Procedures
(2) To the collected supernatant, 5X SDS sample loading buffer was added, followed by denaturation at 95°C for 5 minutes. The denatured samples were then separated by SDS-PAGE electrophoresis on a polyacrylamide gel. Proteins were transferred to a nitrocellulose membrane (0.45 µm NC membrane), blocked with blocking buffer at room temperature for 1 hour, and subjected to antibody incubation and development procedures according to the antibody manufacturer's instructions (Cell Signaling Technology).
Half-Maximal Degradation Concentration value (the drug concentration required for degrading proteins by 50%, abbreviated as DC50) reads method: comparing the grayscale values of Western blot bands from drug-treated samples with those from blank DMSO-treated controls, and identifying the drug concentration range at which the grayscale value is half that of the DMSO-treated control bands.
DC50 values can be calculated using ImageJ software to measure grayscale values of Western blot bands from drug-treated samples. The concentration-response curve is fitted to estimate the drug concentration corresponding to half the grayscale value.
Target protein remaining (%) refers to the percentage of target protein remaining in hPBMC cells after treatment with protein degrader compounds.
Calculation method for target protein remaining (%): Use ImageJ software to measure grayscale values of Western blot bands from drug (protein degrader)-treated samples. The grayscale value of drug-treated bands is divided by that of internal control protein bands, and the resulting quotient is normalized to obtain the relative percentage of remaining target protein after protein degrader treatment.
Target protein degradation rate (%) = 100% - target protein remaining (%).

With `O=C1CCC(Nc2cccc(CN3CCN(c4ccc5c(c4)nc(NC(=O)c4cccc(C(F)(F)F)c4)n5[C@H]4CC[C@@H](CO)CC4)CC3)c2)C(=O)N1` (some centres unmarked) [GT-04985, N-(5-(4-(3-((2,6-dioxopiperidin-3-yl)amino)benzyl)piperazin-1-yl)-1-((1s,4s)-4-(hydroxymethyl)cyclohexyl) -1H-benzo[d]imidazol-2-yl)-3-(trifluoromethyl)benzamide], the “Degradation of substrate protein IRAK4 (substrate protein remaining %)” value (shortened to “Degradation … (substrate protein remaining %)”) is “A (A is defined as 0% ≤ substrate protein remaining % ≤ 80%)”.
For `O=C1CCN(c2ccc(CN3CCC(n4cc(NC(=O)c5cnn6ccc(N7C[C@H]8C[C@@H]7CO8)nc56)c(C(F)F)n4)CC3)cn2)C(=O)N1` [GT-05054, 5-((1R,4R)-2-oxa-5-azabicyclo[2.2.1]heptan-5-yl)-N-(3-(difluoromethyl)-1-(1-((6-(2,4-dioxotetrahydropyrimidin-1(2H)-yl)pyridin-3-yl)methyl)piperidin-4-yl)-1H-pyrazol-4-yl)pyrazolo[1,5-a]pyrimidine-3-carboxamide] the value was “A (A is defined as 0% ≤ substrate protein remaining % ≤ 80%)”.
For `O=C1CCN(c2cccc(CN3CCC(n4cc(NC(=O)c5coc(-c6ccnc(NCC(F)(F)F)c6)n5)c(C(F)F)n4)CC3)c2)C(=O)N1` [GT-05190, N-(3-(difluoromethyl)-1-(1-(3-(2,4-dioxotetrahydropyrimidin-1(2H)-yl)benzyl)piperidin-4-yl)-1H-pyrazol-4-yl)-2-(2-((2,2,2-trifluoroethyl)amino)pyridin-4-yl)oxazole-4-carboxamide] the value was “A (A is defined as 0% ≤ substrate protein remaining % ≤ 80%)”.
As to `CC(C)(O)c1cc2nc(C3CCN(Cc4ccc(C5CCC(=O)NC5=O)cc4)CC3)oc2cc1NC(=O)c1cccc(C(F)(F)F)n1` (centres unmarked) [GT-05771, N-(2-(1-(4-(2,6-dioxopiperidin-3-yl)benzyl)piperidin-4-yl)-5-(2-hydroxypropan-2-yl)benzo[d]oxazol-6-yl)-6-(trifluoromethyl)picolinamide], the “Degradation … (substrate protein remaining %)” value is recorded as “A (A is defined as 0% ≤ substrate protein remaining % ≤ 80%)”.
As to `Cc1cc(-c2nc(C(=O)Nc3cc4oc(N5CCN(Cc6ccc(N7CCC(=O)NC7=O)cc6)CC5)nc4nc3N3CC[C@@H](O)C3)co2)ccn1` [GT-05807, (R)-N-(2-(4-(4-(2,4-dioxotetrahydropyrimidin-1(2H)-yl)benzyl)piperazin-1-yl)-5-(3-hydroxypyrrolidin-1-yl)oxazolo[4,5-b]pyridin-6-yl)-2-(2-methylpyridin-4-yl)oxazole-4-carboxamide], the “Degradation … (substrate protein remaining %)” value is listed as “A (A is defined as 0% ≤ substrate protein remaining % ≤ 80%)”.
For `CC(C)Nc1cc(-n2ccc3cc(C#N)cnc32)ncc1C(=O)NC1CCN(Cc2cc(N3CCC(=O)NC3=O)ncc2F)CC1` [GT-07408, 6-(5-cyano-1H-pyrrolo[2,3-b]pyridin-1-yl)-N-(1-((2-(2,4-dioxotetrahydropyrimidin-1(2H)-yl)-5-fluoropyridin-4-yl)methyl)piperidin-4-yl)-4-(isopropylamino)nicotinamide], the “Degradation … (substrate protein remaining %)” value is “A (A is defined as 0% ≤ substrate protein remaining % ≤ 80%)”.
Regarding `CC(C)Nc1cc(-n2ccc3cc(C#N)cnc32)ncc1C(=O)NC1CCN(Cc2ccnc(N3CCC(=O)NC3=O)c2)CC1` [GT-07409, 6-(5-cyano-1H-pyrrolo[2,3-b]pyridin-1-yl)-N-(1-((2-(2,4-dioxotetrahydropyrimidin-1(2H)-yl)pyridin-4-yl)methyl)piperidin-4-yl)-4-(isopropylamino)nicotinamide], the “Degradation … (substrate protein remaining %)” value is recorded as “A (A is defined as 0% ≤ substrate protein remaining % ≤ 80%)”.
For `CC(C)Nc1cc(-n2ccc3cc(C#N)cnc32)ncc1C(=O)NC1CCN(Cc2cncc(N3CCC(=O)NC3=O)c2)CC1` [GT-07410, 6-(5-cyano-1H-pyrrolo[2,3-b]pyridin-1-yl)-N-(1-((5-(2,4-dioxotetrahydropyrimidin-1(2H)-yl)pyridin-3-yl)methyl)piperidin-4-yl)-4-(isopropylamino)nicotinamide] the value was “A (A is defined as 0% ≤ substrate protein remaining % ≤ 80%)”.
Under `CC(C)Nc1cc(-n2ccc3cc(C#N)cnc32)ncc1C(=O)NC1CCN(Cc2ccc(C3CCC(=O)NC3=O)cn2)CC1` (centres unmarked) [GT-07411, 6-(5-cyano-1H-pyrrolo[2,3-b]pyridin-1-yl)-N-(1-((5-(2,6-dioxopiperidin-3-yl)pyridin-2-yl)methyl)piperidin-4-yl)-4-(isopropylamino)nicotinamide] stands “A (A is defined as 0% ≤ substrate protein remaining % ≤ 80%)”; under `CC(C)Nc1cc(-n2ccc3cc(C#N)cnc32)ncc1C(=O)NC1CCN(Cc2ccnc(C3CCC(=O)NC3=O)c2)CC1` (centres unmarked) [GT-07412, 6-(5-cyano-1H-pyrrolo[2,3-b]pyridin-1-yl)-N-(1-((2-(2,6-dioxopiperidin-3-yl)pyridin-4-yl)methyl)piperidin-4-yl)-4-(isopropylamino)nicotinamide], “A (A is defined as 0% ≤ substrate protein remaining % ≤ 80%)”.
For `CC(C)Nc1cc(-n2ccc3cc(C#N)cnc32)ncc1C(=O)NC1CCN(Cc2cncc(C3CCC(=O)NC3=O)c2)CC1` (centres unmarked) [GT-07413, 6-(5-cyano-1H-pyrrolo[2,3-b]pyridin-1-yl)-N-(1-((5-(2,6-dioxopiperidin-3-yl)pyridin-3-yl)methyl)piperidin-4-yl)-4-(isopropylamino)nicotinamide] the value was “A (A is defined as 0% ≤ substrate protein remaining % ≤ 80%)”.
For `COc1cc2nn(C3CCN(Cc4cc(N5CCC(=O)NC5=O)ncc4F)CC3)cc2cc1NC(=O)c1cccc(C(F)(F)F)c1` [GT-07414, N-(2-(1-((2-(2,4-dioxotetrahydropyrimidin-1(2H)-yl)-5-fluoropyridin-4-yl)methyl)piperidin-4-yl)-6-methoxy-2H-indazol-5-yl)-3-(trifluoromethyl)benzamide], the “Degradation … (substrate protein remaining %)” value is on record as “A (A is defined as 0% ≤ substrate protein remaining % ≤ 80%)”.
For the molecule `COc1cc2nn(C3CCN(Cc4ccnc(N5CCC(=O)NC5=O)c4)CC3)cc2cc1NC(=O)c1cccc(C(F)(F)F)c1` [GT-07415, N-(2-(1-((2-(2,4-dioxotetrahydropyrimidin-1(2H)-yl)pyridin-4-yl)methyl)piperidin-4-yl)-6-methoxy-2H-indazol-5-yl)-3-(trifluoromethyl)benzamide], the “Degradation … (substrate protein remaining %)” value is listed as “A (A is defined as 0% ≤ substrate protein remaining % ≤ 80%)”.
For `COc1cc2nn(C3CCN(Cc4cncc(N5CCC(=O)NC5=O)c4)CC3)cc2cc1NC(=O)c1cccc(C(F)(F)F)c1` [GT-07416, N-(2-(1-((5-(2,4-dioxotetrahydropyrimidin-1(2H)-yl)pyridin-3-yl)methyl)piperidin-4-yl)-6-methoxy-2H-indazol-5-yl)-3-(trifluoromethyl)benzamide], the “Degradation … (substrate protein remaining %)” value is “A (A is defined as 0% ≤ substrate protein remaining % ≤ 80%)”.
For `COc1cc2nn(C3CCN(Cc4ccnc(C5CCC(=O)NC5=O)c4)CC3)cc2cc1NC(=O)c1cccc(C(F)(F)F)c1` (centres unmarked) [GT-07418, N-(2-(1-((2-(2,6-dioxopiperidin-3-yl)pyridin-4-yl)methyl)piperidin-4-yl)-6-methoxy-2H-indazol-5-yl)-3-(trifluoromethyl)benzamide] the value was “A (A is defined as 0% ≤ substrate protein remaining % ≤ 80%)”.
For `COc1cc2nn(C3CCN(Cc4ccnc(N5CCC(=O)NC5=O)c4)CC3)cc2cc1NC(=O)c1cccc(C(F)(F)F)n1` [GT-07532, N-(2-(1-((2-(2,4-dioxotetrahydropyrimidin-1(2H)-yl)pyridin-4-yl)methyl)piperidin-4-yl)-6-methoxy-2H-indazol-5-yl)-6-(trifluoromethyl)picolinamide] the value was “A (A is defined as 0% ≤ substrate protein remaining % ≤ 80%)”.
`CC(C)Nc1cc(-n2ccc3cc(C#N)cnc32)ncc1C(=O)NC1CCN(Cc2cccnc2C2CCC(=O)NC2=O)CC1` (centres unmarked) [GT-07546, 6-(5-cyano-1H-pyrrolo[2,3-b]pyridin-1-yl)-N-(1-((2-(2,6-dioxopiperidin-3-yl)pyridin-3-yl)methyl)piperidin-4-yl)-4-(isopropylamino)nicotinamide]: the “Degradation … (substrate protein remaining %)” value is reported as “A (A is defined as 0% ≤ substrate protein remaining % ≤ 80%)”.
